Measurements from patent US11998596B2 (priority 2019, dated 2024).

Tested on: PBMCs from ASF-convalescent animals
Type: cell-based, pig

Sequence: NSTLVIRI
- Responding animals (%): 4/20 (20%)
- Responding animals (responders/tested): 4/20 (20%)
